Laboratory results taken from patent US8088761B2, “Enzyme inhibitors” (Cancer Research Technology Limited, priority 2005, dated 2012).

Tests used:
Aurora-A [1] = target: T1, Aurora-A (Homo sapiens, UniProt O14965); experiment: Flashplate Aurora A enzyme inhibition assay; type: biochemical; conditions: Flashplate assay; IC50 range; read-out: Aurora-A inhibition
T1 sequence (O14965 1-403): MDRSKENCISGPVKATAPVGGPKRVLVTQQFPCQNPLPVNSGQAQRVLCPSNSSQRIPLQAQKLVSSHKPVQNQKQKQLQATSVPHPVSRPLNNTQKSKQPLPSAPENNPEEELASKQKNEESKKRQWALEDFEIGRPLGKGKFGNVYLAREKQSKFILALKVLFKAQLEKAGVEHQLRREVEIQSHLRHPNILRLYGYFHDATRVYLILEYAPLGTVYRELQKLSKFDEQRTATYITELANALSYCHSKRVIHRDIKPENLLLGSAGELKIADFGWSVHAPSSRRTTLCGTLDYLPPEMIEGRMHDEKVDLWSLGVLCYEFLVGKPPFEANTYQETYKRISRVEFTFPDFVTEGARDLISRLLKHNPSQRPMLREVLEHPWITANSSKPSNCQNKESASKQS
Outline: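 This is a radiometric Flashplate format: plates were precoated with DTT, and compound (in 2% DMSO) was mixed with kinase buffer (pH 7.5 Tris, MgCl2, NaCl) containing 1 mM MBP, 20 μM ATP and ^33P-ATP. The reaction was started with 250 ng Aurora-A per well and incubated 2 h at RT. It was then stopped by 10 mM sodium pyrophosphate washing, and plates were scintillation-counted.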

HCT116 cells = experiment: Cell viability assay (MTT) in HCT116 cell line; type: cell-based; conditions: Homo sapiens, HCT-116, 72 hrs, IC50 range, read-out: HCT116 cell growth inhibition
Outline: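 MTT read-out (4 hrs, 37 °C, DMSO extraction) following 72 hrs of treatment with 0-50 μM Aurora inhibitor. HCT116 cells were plated a day earlier and tested in triplicate; IC50 derived from the curve.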

Aurora-B [2] = target: T2, Aurora-B (Homo sapiens, UniProt Q96GD4); experiment: Filterplate assay for Aurora-B inhibitors; type: biochemical; conditions: read-out: IC50 range in respect of Aurora-B
T2 sequence (Q96GD4 whole entry): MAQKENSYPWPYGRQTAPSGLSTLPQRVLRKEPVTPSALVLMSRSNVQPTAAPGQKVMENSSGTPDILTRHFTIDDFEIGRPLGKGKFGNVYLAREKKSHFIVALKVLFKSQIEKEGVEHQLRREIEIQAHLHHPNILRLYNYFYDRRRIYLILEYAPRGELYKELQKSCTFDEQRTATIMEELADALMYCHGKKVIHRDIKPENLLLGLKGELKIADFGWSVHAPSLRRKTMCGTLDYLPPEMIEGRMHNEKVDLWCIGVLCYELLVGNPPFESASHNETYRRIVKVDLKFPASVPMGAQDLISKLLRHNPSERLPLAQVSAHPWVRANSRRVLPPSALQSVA
Experimental: (§1) 40 μl master mix of kinase buffer (50 mM Tris pH 7.5, 10 mM NaCl, 2.5 mM MgCL2, 1 mM DTT, 20 μM ATP, 0.025 μCi/μl ^33P-ATP, and 100 μg/ml MBP was added to a 96-well plate followed by addition of 250 ng of Aurora-A enzyme per well. The plate was shaken for approximately 2 min on a flat-bed plate shaker (Wellmix, Denley, UK) and incubated for 2 hours at room temperature. The reaction was stopped by the addition of 30 μl of 2% orthophosphoric acid. The reaction mixture was then transferred and filtered on the 96-well Multi-Screening Filter Plate (MATAH0P00, MILLIPORE), pre-treated with 50 μl per well of 0.5% orthophosphoric acid. The plate was washed twice with 200 μl of 0.5% orthophosphoric acid and vacuum-dried. 25 μl of scintillant (Microscint™20, PerkinElmer) per well was added and the plate was shaken for 10 min. Finally, the plate was re-sealed with TopSealA and the signal from the filter-bound component was read on TopCount-NXT™ (PerkinElmer Life Sciences UK Ltd., Hounslow, UK).
(§2) Filterplate Assay for Identification and Evaluation of Aurora-B and Aurora-C Inhibitors
(§3) For the determination of the inhibitory activity against Aurora-B or Aurora-C, the same conditions were followed in the assay using Aurora-B or Aurora-C enzymes.

Aurora-C [3] = target: T3, Aurora-C (Homo sapiens, UniProt Q9UQB9); experiment: Filterplate assay for Aurora-C inhibitors; type: biochemical; conditions: read-out: IC50 range in respect of Aurora-C
T3 sequence (Q9UQB9 1-309): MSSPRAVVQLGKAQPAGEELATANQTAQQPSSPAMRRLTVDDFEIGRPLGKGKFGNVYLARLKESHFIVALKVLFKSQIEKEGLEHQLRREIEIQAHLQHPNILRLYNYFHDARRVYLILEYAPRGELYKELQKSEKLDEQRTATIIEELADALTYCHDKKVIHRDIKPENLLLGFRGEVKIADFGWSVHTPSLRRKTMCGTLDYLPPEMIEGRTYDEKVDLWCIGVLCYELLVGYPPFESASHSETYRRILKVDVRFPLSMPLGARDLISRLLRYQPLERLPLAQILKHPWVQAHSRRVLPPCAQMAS
Experimental: as §1, §2, §3

Aurora-A [4] = target: T1, Aurora-A; experiment: Filterplate assay for Aurora-A inhibitors; type: biochemical; conditions: read-out: IC50 against Aurora-A
Experimental: Filterplate Assay for Identification and Evaluation of Aurora-A Inhibitors
as §1

Aurora-B [5] = target: T2, Aurora-B; experiment: Flashplate assay for Aurora-B inhibitors; type: biochemical; conditions: read-out: IC50 against Aurora-B
Experimental: (§4) On this assay 384-well Basic Flashplate® (SMP400E, PerkinElmer) as solid assay platform was used. The plates were coated overnight at 4° C. with […] at 100 μg/ml in PBS buffer and used after being washed twice with PBS. 5 μl of compound in 2% DMSO was added to each well followed by 15 μl master mix of kinase buffer (50 mM Tris pH 7.5, 10 mM NaCl, 2.5 mM MgCl2, 1 mM […], 20 μM ATP, and 0.025 μCi/μl ^33P-ATP). Finally, 250 ng per well of Aurora-A enzyme was added. The plate was shaken for approximately 2 min on a flat-bed plate shaker (Wellmix, Denley, UK) and incubated for 2 hours at room temperature. The reaction was stopped by washing the plate twice on a 16-pin wash (ELX50 BioTek Instruments Ltd., Northstar, Bedford, UK) with 10 mM sodium pyrophosphate. The plate was then read on a TopCount-NX™ (PerkinElmer Life Sciences UK Ltd., Hounslow, UK).
(§5) Flashplate® Assay for Identification and Evaluation of Aurora-B and Aurora-C Inhibitors
as §3

Aurora-C [6] = target: T3, Aurora-C; experiment: Flashplate assay for Aurora-C inhibitors; type: biochemical; conditions: read-out: IC50 against Aurora-C
Experimental: as §4, §5, §3

| SMILES | IC50 (Aurora-A [1]) [nM] | IC50 (HCT116 cells) [nM] | IC50 (Aurora-B [2]) [nM] | IC50 (Aurora-C [3]) [nM] | IC50 (Aurora-A [4]) [nM] | IC50 (Aurora-B [5]) [nM] | IC50 (Aurora-C [6]) [nM] |
| --- | --- | --- | --- | --- | --- | --- | --- |
| Brc1cnc2[nH]c(-c3ccc(CN4CCNCC4)cc3)nc2c1N1CCN(Cc2cccnc2)CC1 [Example 106, 6-Bromo-2-(4-(piperazin-1-ylmethyl)phenyl)-7-(4-(pyridin-3-ylmethyl)piperazin-1-yl)-3H-imidazo[4,5-b]pyridine] | < 500 | < 500 | 500 to 2000 | < 500 |  |  |  |
| Cc1cc(CN2CCN(c3c(Br)cnc4[nH]c(-c5ccc(Cn6cccn6)cc5)nc34)CC2)no1 [Example 77, 6-Bromo-7-[4-(5-methyl-isoxazol-3-ylmethyl)-piperazin-1-yl]-2-(4-pyrazol-1-ylmethyl-phenyl)-3H-imidazo[4,5-b]pyridine] | < 500 | < 500 | < 500 | < 500 |  |  |  |
| CN(C)c1ccc(-c2nc3c(N4CCN(CC(=O)Nc5nccs5)CC4)c(Cl)cnc3[nH]2)cc1 [Example 1, 2-{4-[6-Chloro-2-(4-dimethylamino-phenyl)-3H-imidazo[4,5-b]pyridin-7-yl]-piperazin-1-yl}-N-thiazol-2-yl-acetamide] | < 500 | < 500 |  |  | 80 | 110 | 362 |
| Cc1cc(CN2CCN(c3c(Br)cnc4[nH]c(-c5ccc(CN6CCOCC6)cc5)nc34)CC2)no1 [Example 75, 6-Bromo-7-[4-(5-methyl-isoxazol-3-ylmethyl)-piperazin-1-yl]-2-(4-morpholin-4-ylmethyl-phenyl)-3H-imidazo[4,5-b]pyridine] | < 500 | < 500 | < 500 | < 500 |  |  |  |
| Brc1cnc2[nH]c(-c3ccc(CN4CCOCC4)cc3)nc2c1N1CCN(Cc2cccnc2)CC1 [Example 65, 6-Bromo-2-(4-morpholin-4-ylmethyl-phenyl)-7-(4-pyridin-3-ylmethyl-piperazin-1-yl)-3H-imidazo[4,5-b]pyridine] | < 500 | < 500 | 500 to 2000 | < 500 |  |  |  |
| CN(C)c1ccc(-c2nc3c(N4CCN(CC(=O)Nc5nccs5)CC4)c(Br)cnc3[nH]2)cc1 [Example 2, 2-{4-[6-Bromo-2-(4-dimethylamino-phenyl)-3H-imidazo[4,5-b]pyridin-7-yl]-piperazin-1-yl}-N-thiazol-2-yl-acetamide] | < 500 | < 500 |  |  | 70 | 410 | 530 |
| Cc1nc(CN2CCN(c3c(Br)cnc4[nH]c(-c5ccc(Cn6cccn6)cc5)nc34)CC2)cs1 [Example 162, 4-((4-(2-(4-((1H-Pyrazol-1-yl)methyl)phenyl)-6-bromo-3H-imidazo[4,5-b]pyridin-7-yl)piperazin-1-yl)methyl)-2-methylthiazole] | < 500 | < 500 | 500 to 2000 | < 500 |  |  |  |
| Brc1cnc2[nH]c(-c3ccc(CN4CCOCC4)cc3)nc2c1N1CCN(Cc2cncnc2)CC1 [Example 122, 4-(4-(6-Bromo-7-(4-(pyrimidin-5-ylmethyl)piperazin-1-yl)-3H-imidazo[4,5-b]pyridin-2-yl)benzyl)morpholine] | < 500 | < 500 | < 500 | < 500 |  |  |  |
